# Experimental data from patent publication US8932614B2, “Incorporation of particulate ceragenins in polymers” (priority 2011, dated 2015).
# Key:
# [1] = tested on: biofilms; experiment: Coated bone plates implanted into animals and challenged with biofilms; type: in vivo, sheep; details: CSA-13 coated stainless steel plates
# From the text: Similar results were obtained in vivo when bone plates were coated with ceragenin-containing composites and were compared with bone plates coated with polymer only, then implanted into animals and challenged with biofilms. […] In contrast, 100% of animals who received polymer-only bone plates developed infection when they were infected with biofilms and bacterial loads in and around the infection site exceeded 10^6 bacterial cells per gram of tissue, which is well above the standard for infection.
# In addition, histological sections were compared from animals receiving bone plates. […] Two sheep in Group 1 were euthanized after one week due to the severity of their infections. […] And while inflammation was present in sheep from all groups, with the highest level of inflammation being present in Group 1 sheep, this is a normal response to surgical trauma.
# [2] = tested on: MRSA; experiment: Coated titanium bone plugs in broth challenged with MRSA (planktonic, FIG. 4); type: cell-based, methicillin-resistant Staphylococcus aureus; details: for viable bacteria per tube: 4 and 8 hour time points, challenge ~5×10^8 CFU MRSA; for viable bacteria: 24 hour time point
# Procedure: To confirm that medical devices coated with the ceragenin-containing composites described herein are able to kill bacteria, various groups of titanium bone plugs were prepared. The titanium bone plugs were either uncoated, coated with MED-6607 ceragenin-containing silicone polymer prepared as described above, or with MED-6607 silicone polymer only. In the groups of bone plugs that were coated with ceragenin-containing silicone polymer, the silicone either contained 16 wt %, 18 wt %, or 20 wt % ceragenin. Specifically, the groups of bone plugs were as follows: • 0%—a titanium bone plug coated with silicone polymer with no ceragenin • 16%—a titanium bone plug coated with silicone polymer containing 16% CSA-13 (w/w) • 18%—a titanium bone plug coated with silicone polymer containing 18% CSA-13 (w/w) • […] • titanium—a titanium bone plug with no coating
# The bone plugs were placed into broth (e.g., 30 ml of broth) and challenged with ˜5×10^8 colony forming units (CFU) of MRSA. In addition, a broth/MRSA-only control was prepared. Samples were withdrawn from each of the tubes at 0, 1, 2, 4, 8, 24, and 48 hours. The data for the 0, 1, 2, 4, 8, and 24 hour data points are graphed in FIG. 4.
# In contrast, the 16% tubes each contained about 1×10^3 CFU and the 20% tubes each contained about 5×10^2 CFU.
smiles,measurement,setting,value
CCCCCCCCNCCC[C@@H](C)[C@H]1CC[C@H]2[C@@H]3[C@H](OCCCN)C[C@@H]4C[C@H](OCCCN)CC[C@]4(C)[C@H]3C[C@H](OCCCN)[C@]12C [CSA-13],sheep showing signs of osteomyelitis (histology),[1]; Group 2 (n=9): biofilm,none
same,sheep showing signs of osteomyelitis (histology),[1]; Group 4 (n=8): no biofilm,none
same,viable bacteria per tube,[2]; bone plug coated with silicone containing 16% CSA-13 (w/w),about 1×10^3 CFU
same,viable bacteria,[2]; bone plug coated with silicone containing 16% CSA-13,considerable numbers of viable bacteria
same,viable bacteria per tube,[2]; bone plug coated with silicone containing 18% CSA-13 (w/w),essentially no viable bacterial
same,viable bacteria per tube,[2]; bone plug coated with silicone containing 20% CSA-13 (w/w),about 5×10^2 CFU
same,viable bacteria,"[2]; bone plug coated with silicone containing 20% CSA-13, compared with 18%",caught up to the 18
same,numbers of viable bacteria (CFU/ml) over time,"[2]; tubes containing a bone plug with CSA-13 (16%, 18% and 20%), 0-24 h",dropped dramatically
